The record followed here is US20080260838A1 (priority 2003, published 2008).

The subject of assay [1] is β-cell mass. Nature of the assay: Effect on β-cell mass, cells treated at day 1, 3 and 5. The format is cell-based. The following applies: cells treated with GLP-1/FDKP versus untreated cells.
For assay [2], the system named is Rat pancreatic epithelial (ARIP) cells. The assay can be described thus: Apoptosis by FACS analysis using Annexin V staining. The format is cell-based. The following applies: 15 nM GLP-1, 1 μM staurosporine 4 hrs. From the text:
Annexin V staining is a useful tool in detecting apoptotic cells and is well known to those of skill in the art. Binding of Annexin V to the cell membrane, allows for the analysis of changes in […] (PS) asymmetry before morphological changes associated with apoptosis occurred and before membrane integrity is lost.
In general terms: A flow cytometer gives signals particle by particle.

Assay [3] shares this test system. Nature of the assay: Staurosporine-induced cell death in ARIP cells (Cell Titer-Glo). The format is cell-based. The following applies: GLP-1 up to 10 nM, 5 μM staurosporine […].
Experimental: Cell viability was evaluated using Cell Titer-Glo™ (Promega, Madison, Wis.).
The formulations were analyzed for their ability to inhibit staurosporine-induced cell death in ARIP cells.
All of the results shown are averages of triplicate runs.
Assay [4] has as its target T1, DPP-IV (Rattus norvegicus, UniProt P14740).
T1 construct: from tissue; host or cells: rat bronchial lung lavage fluid
The assay can be described thus: DPP-IV activity, cleavage of luminescent Gly-Pro substrate in bronchial lung lavage fluid. The format is biochemical. Particulars: aprotinin 1, 2, 3, 4 and 5 TIU/ml. Here is the method:
Aprotinin, a naturally occurring serine protease inhibitor, which is known in the art to inhibit protein degradation was added to the samples post collection at 1, 2, 3, 4 and 5 TIU/ml. DPP-IV activity was then measured by detecting the cleavage of a luminescent substrate containing the DPP-IV recognized Gly-Pro sequence. Bronchial lung lavage fluid was incubated with proluminescent substrate for 30 min and cleavage product was detected by luminescence.

T1 sequence (P14740 whole entry): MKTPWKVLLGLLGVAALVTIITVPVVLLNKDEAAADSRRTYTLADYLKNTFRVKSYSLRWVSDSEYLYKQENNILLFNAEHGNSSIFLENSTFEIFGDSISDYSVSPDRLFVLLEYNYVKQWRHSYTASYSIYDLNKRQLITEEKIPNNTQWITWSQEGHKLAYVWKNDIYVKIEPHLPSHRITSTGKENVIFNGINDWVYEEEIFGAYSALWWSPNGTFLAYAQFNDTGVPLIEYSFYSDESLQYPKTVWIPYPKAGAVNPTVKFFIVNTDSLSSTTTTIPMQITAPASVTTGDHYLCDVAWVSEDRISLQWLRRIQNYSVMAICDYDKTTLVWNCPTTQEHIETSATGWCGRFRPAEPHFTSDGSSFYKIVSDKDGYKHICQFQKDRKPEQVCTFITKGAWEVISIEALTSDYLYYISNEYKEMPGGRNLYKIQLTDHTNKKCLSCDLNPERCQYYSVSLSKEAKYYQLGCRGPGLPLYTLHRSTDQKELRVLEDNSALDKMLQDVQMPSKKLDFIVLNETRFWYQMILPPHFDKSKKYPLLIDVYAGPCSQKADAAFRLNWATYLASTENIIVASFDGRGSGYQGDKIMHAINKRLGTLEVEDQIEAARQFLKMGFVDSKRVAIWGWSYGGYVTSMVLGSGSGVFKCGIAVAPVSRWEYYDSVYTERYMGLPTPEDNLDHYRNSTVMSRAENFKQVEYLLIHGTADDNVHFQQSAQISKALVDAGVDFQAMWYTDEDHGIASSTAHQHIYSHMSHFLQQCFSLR

For the substance GLP-1, in assay [1], the “increase in β-cell mass” value is “up to 2 fold”. In addition, the “inhibition of staurosporine induced apoptosis” value in assay [2] is recorded as “about 40%”. Also, in assay [3], the “percent of cell death” value is “decrease in the percent of cell death”.

Consider aprotinin, for which the “inhibition of DPP-IV activity” value in assay [4] was “increase in inhibition of DPP-IV activity”.
